The source of these data is US11459375B2, “Cyclic peptides for the treatment of Graves' disease” (advanceCOR GmbH, priority 2017, dated 2022).

Data set [1] is classed as physicochemical. An excerpt:
Peptide 836 is a 24-meric cyclic peptide corresponding to the eighth TSHR LRD loop, and peptide 829 (also 24-meric) to the first loop of the TSHR LRD.

The test system of data set [2] is Ad-TSHR-immunized mice. In words: serum thyroxin (T4) levels in Graves' disease mouse model. The data set is classed as in vivo, BALB/c mice. Particulars: 1 mg/kg IV 4-weekly, after start of therapy (week 11). As to the method: In FIG. 5 the effects of peptide therapy on serum thyroxin levels were evaluated. The measurements were carried out in Ad-TSHR-immunized mice treated by either 4-weekly injections with vehicle (0.9% NaCl, “Graves' no therapy”, n=25 mice), or administrations of 1 mg/kg body weight of peptide of the invention 836 (12 mice), or of peptide 829 (13 mice), or TSHR-Fc (18 mice), or of control peptide 835 (13 mice). In addition, age-matched immunologically naïve unimmunized mice (“healthy”, 19 animals) were investigated. Data are represented as means±SEM. Significance over time was tested by analysis of variance (ANOVA) of groups at given time points, and controlled by ANOVA for repeated measurements within one group, followed by LSD post-hoc testing. *p<0.05, and **p<0.005, compared to the TSHR-immunized group treated with only NaCl (“Graves' no therapy”).
(§1) The study protocol used three 3-weekly immunizations (“initiation”) and followed by a “maintenance” phase with further regular 4-weekly boosts until the 9th immunisation, as described before (22). Mice were randomly assigned to therapeutic groups. Therapy (either 1 mg/kg body weight peptides or 0.9% NaCl vehicle control) was given 1 week after the 4th immunization by IV injection into a tail vein, and then continued at 4-weekly intervals, as described before for the treatment of anti-β1AR (16). The fusion protein TSHR-Fc was given IV at identical times at doses of 1 mg/kg, but had to be applied together with the histamine receptor blocker clemastin (Tavegil®) at a dose of 0.02 mg per mouse (25 g body weight) to avoid clinical symptoms of allergic reaction, which had been observed in initial pilot studies of TSHR-Fc administration in mice.
Total thyroxine (T4) was measured by immunoassay kit (#T4044T-100, Calbiotech Inc, Austin, Calif.) in duplicate determination.

The test system of data set [3] is Ad-TSHR-immunized mice. The experiment in a line: thyroid size at end of experiment in Graves' disease mouse model. The data set is classed as in vivo, BALB/c mice. The following applies: 1 mg/kg IV 4-weekly. As to the method:
Representative images are shown. In FIG. 4B, the effects of peptide therapy on thyroid sizes were investigated at the end of the experiment. The measurements were carried out in Ad-TSHR-immunized mice treated by either 4-weekly injections with vehicle (0.9% NaCl, “Graves' no therapy”, n=25 mice), or administrations of 1 mg/kg body weight of peptide of the invention 836 (12 mice), or of peptide 829 (13 mice), or of TSHR-Fc (18 mice), or of control peptide 835 (13 mice). In addition, age-matched immunologically naïve unimmunized mice (“healthy”, 19 animals) were investigated. The mean thyroid sizes in mm^3 are shown with SEM. Differences between groups were tested by AVOVA followed by post hoc LSD testing. ** indicates statistical significance (p<0.001) compared to the TSHR-immunized group treated with only NaCl (“Graves' no therapy”).
as §1
After euthanasia, dissection of the thyroid glands was performed under a stereomicroscope, as described before (22). Briefly, cross cuts at the level above the larynx and below the seventh cartilage ring were made and the glands with the tracheae and oesophagi were removed from the necks. Tissue blocks were kept in 4% neutral para-formaldehyde (PFA), washed in PBS 3 times and embedded in optimum cutting temperature (OCT) formulation (Tissue-Tek® O.C.T.™ compound, VWR Chemicals, Leuven, Belgium). Consecutive 5 μm-thick cross sections were cut at a fixed distance of 500 μm using a Leica microtome CM 1850 Cryostat (temperature at −19° C.) and mounted on Thermo Polysine slides (Thermo Scientific, Cat J2800AMNZ). […] Thyroid volumes (mm^3) were calculated from the sum of the areas of each section over the whole cutting region. Myocardial volumes (mm^3) were calculated in a similar way as described for thyroid glands from the sum of the areas of each section over whole cutting region (5 to 6 slides, depending on respective size of the hearts). […]

Data set [4] deals with Ad-TSHR-immunized mice. The experiment in a line: ECG heart rates in Graves' disease mouse model. Particulars: 1 mg/kg IV 4-weekly, ECG under anaesthesia. The data set is classed as in vivo, BALB/c mice. As to the method: (§2) In FIG. 7 the effect of the peptide therapy on heart rates at various times during the experiment (A), and on heart weights (B) and cardiac ventricular volumes (C) at the end of the experiment were evaluated in all animals. The measurements were carried out in Ad-TSHR-immunized mice treated by either 4-weekly injections with vehicle (0.9% NaCl, “Graves' no therapy”, n=25 mice), or administrations of 1 mg/kg body weight of peptide of the invention 836 (12 mice), or of peptide 829 (13 mice), or TSHR-Fc (18 mice). In addition, age-matched immunologically naïve unimmunized mice (“healthy”, 19 animals) were investigated. Data are represented as mean±SEM. Significance over time was tested by analysis of variance (ANOVA) of groups at given time points, and controlled by ANOVA for repeated measurements within one group, followed by LSD post-hoc testing. *p<0.05, and **p<0.005, compared to the TSHR-immunized group treated with only NaCl (“Graves' no therapy”).
When mice were subjected to anaesthesia for immunisation, their heart function was monitored with an electrocardiogram (ECG amplifier module, Harvard Apparatus, Hugo Sachs electronics) and recorded with a special software, which allows to determine the heart rate from the ECG reading (Haemodyn, Hugo Sachs electronics). ECG was also performed in anaesthesia before animals were euthanized for histological exam at the end of the study.

The test system of data set [5] is Ad-TSHR-immunized mice. In words: heart weights upon necropsy. The data set is classed as in vivo, BALB/c mice. Particulars: 1 mg/kg IV 4-weekly, necropsy at end of experiment. As to the method:
as §2
Due to unavailability of some fine histological sections, analysis of this parameter in mice treated with other peptides could unfortunately not be completed.

With NAFQGLCNETLTLKLYNNGFTSVQ [peptide 835], the solubility in water result in data set [1] is on record as “easily soluble in water”. In addition, the “serum thyroxin (T4) levels” value in the data set on Ad-TSHR-immunized mice [2] is reported as “did not result in any effects”. Moreover, the thyroid size result in the data set with Ad-TSHR-immunized mice [3] is given as “did not show any effects”. The heart rate entry with Ad-TSHR-immunized mice [4] is “did not show any effects”. In addition, the heart weights result with Ad-TSHR-immunized mice [5] is listed as “did not show any effects”.
